Measured values taken from ChEMBL document CHEMBL6182915, “Discovery of a Potent FLT3 Inhibitor (E)-4-(3-(3-Fluoro-4-(morpholinomethyl)styryl)-1H-indazol-6-yl)pyridin-2-amine for the Treatment of Acute Myeloid Leukemia with Multiple FLT3 Mutations” (J Med Chem, 2025).
Calls of active or inactive are those of the source. No cut-off for these calls is given here.

Tests used:
[1] = Intrinsic clearance in human liver microsomes; format: ADME, Microsome; conditions: read-out: CLH
[2] = system: Receptor-type tyrosine-protein kinase FLT3 (Mus musculus), Q00342 [UNDEFINED MUTATION]; experiment: Inhibition of FLT3 in mouse BaF3 cells harboring FLT3-ITD-D835I mutant assessed as inhibition of ERK phosphorylation at Thr202/Tyr204 residue at 10 nM incubated for 3 hrs by immunoblot analysis; format: cell-based
Receptor-type tyrosine-protein kinase FLT3 (Mus musculus), Q00342 [UNDEFINED MUTATION], sequence (Q00342 whole entry, looked up, stated change not applied): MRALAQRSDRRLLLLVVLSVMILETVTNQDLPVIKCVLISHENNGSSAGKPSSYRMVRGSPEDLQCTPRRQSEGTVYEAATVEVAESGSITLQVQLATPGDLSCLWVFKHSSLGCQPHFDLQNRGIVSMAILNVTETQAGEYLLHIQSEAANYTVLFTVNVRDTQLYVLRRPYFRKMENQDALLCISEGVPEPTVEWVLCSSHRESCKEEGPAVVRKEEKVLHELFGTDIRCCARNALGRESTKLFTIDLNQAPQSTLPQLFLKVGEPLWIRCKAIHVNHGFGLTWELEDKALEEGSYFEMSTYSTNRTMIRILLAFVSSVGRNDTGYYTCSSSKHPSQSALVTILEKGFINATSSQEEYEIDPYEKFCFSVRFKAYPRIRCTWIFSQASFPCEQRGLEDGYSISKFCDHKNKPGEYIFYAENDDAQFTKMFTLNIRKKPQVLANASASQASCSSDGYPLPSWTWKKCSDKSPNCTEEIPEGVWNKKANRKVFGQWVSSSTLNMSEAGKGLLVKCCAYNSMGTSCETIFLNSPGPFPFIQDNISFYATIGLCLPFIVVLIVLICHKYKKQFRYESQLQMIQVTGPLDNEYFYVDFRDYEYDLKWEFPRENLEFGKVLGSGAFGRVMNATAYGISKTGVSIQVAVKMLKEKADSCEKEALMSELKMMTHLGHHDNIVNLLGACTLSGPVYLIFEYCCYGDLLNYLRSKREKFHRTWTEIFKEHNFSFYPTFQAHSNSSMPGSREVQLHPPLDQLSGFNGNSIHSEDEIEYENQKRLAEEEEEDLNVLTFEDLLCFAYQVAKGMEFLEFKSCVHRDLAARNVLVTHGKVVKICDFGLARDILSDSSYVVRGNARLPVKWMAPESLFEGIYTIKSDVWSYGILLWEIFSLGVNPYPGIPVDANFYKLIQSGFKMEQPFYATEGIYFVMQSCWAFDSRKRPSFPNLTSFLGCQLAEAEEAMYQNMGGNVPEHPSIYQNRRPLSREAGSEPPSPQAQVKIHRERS

MV4-11 [3] = experiment: Induction of apoptosis in human MV4-11 cells assessed as increase in cleaved caspase-3 level incubated for 48 hrs by immunoblot analysis; format: functional, cell-based; conditions: dose 3-300 nM
MV4-11 [4] = experiment: Induction of apoptosis in human MV4-11 cells assessed as increase in cleaved PARP level incubated for 48 hrs by immunoblot analysis; format: functional, cell-based; conditions: dose 3-300 nM
MOLM-13 = experiment: Induction of apoptosis in human MOLM-13 cells assessed as increase in cleaved caspase-3 level incubated for 48 hrs by immunoblot analysis; format: functional, cell-based; conditions: dose 3-300 nM
[5] = Half life in Sprague-Dawley rat at 2 mg/kg, iv by LC-MS/MS analysis; format: ADME, organism-based; conditions: in vivo
[6] = AUC (0 to t) in Sprague-Dawley rat at 2 mg/kg, iv by LC-MS/MS analysis; format: ADME, organism-based; conditions: in vivo
[7] = Clearance in Sprague-Dawley rat at 15 mg/kg, po by LC-MS/MS analysis; format: ADME, organism-based; conditions: in vivo
[8] = Apparent volume of distribution in Sprague-Dawley rat at 15 mg/kg, po by LC-MS/MS analysis; format: ADME, organism-based; conditions: in vivo
[9] = Toxicity against BALB/c-NU/NU mouse xenografted with AC220R human MV4-11 cells assessed as damage in lung at 90 mg/kg, po qd for 12 days by Hematoxylin-Eosin staining based analysis; format: organism-based; conditions: in vivo, 288 h, time 12 day
[10] = system: Vascular endothelial growth factor receptor 1 (Mus musculus), P35969 [UNDEFINED MUTATION]; experiment: In vivo inhibition of FLT3 in BALB/c-NU/NU mouse xenografted with mouse BaF3 cells harboring FLT3-ITD-D835I mutant assessed as inhibition of STAT5 phosphorylation at Tyr694 residue in tumor at 45 mg/kg, po qd for 10 days by immunoblot analysis; format: functional, organism-based; conditions: time 10.0 day
Vascular endothelial growth factor receptor 1 (Mus musculus), P35969 [UNDEFINED MUTATION], sequence (P35969 whole entry, looked up, stated change not applied): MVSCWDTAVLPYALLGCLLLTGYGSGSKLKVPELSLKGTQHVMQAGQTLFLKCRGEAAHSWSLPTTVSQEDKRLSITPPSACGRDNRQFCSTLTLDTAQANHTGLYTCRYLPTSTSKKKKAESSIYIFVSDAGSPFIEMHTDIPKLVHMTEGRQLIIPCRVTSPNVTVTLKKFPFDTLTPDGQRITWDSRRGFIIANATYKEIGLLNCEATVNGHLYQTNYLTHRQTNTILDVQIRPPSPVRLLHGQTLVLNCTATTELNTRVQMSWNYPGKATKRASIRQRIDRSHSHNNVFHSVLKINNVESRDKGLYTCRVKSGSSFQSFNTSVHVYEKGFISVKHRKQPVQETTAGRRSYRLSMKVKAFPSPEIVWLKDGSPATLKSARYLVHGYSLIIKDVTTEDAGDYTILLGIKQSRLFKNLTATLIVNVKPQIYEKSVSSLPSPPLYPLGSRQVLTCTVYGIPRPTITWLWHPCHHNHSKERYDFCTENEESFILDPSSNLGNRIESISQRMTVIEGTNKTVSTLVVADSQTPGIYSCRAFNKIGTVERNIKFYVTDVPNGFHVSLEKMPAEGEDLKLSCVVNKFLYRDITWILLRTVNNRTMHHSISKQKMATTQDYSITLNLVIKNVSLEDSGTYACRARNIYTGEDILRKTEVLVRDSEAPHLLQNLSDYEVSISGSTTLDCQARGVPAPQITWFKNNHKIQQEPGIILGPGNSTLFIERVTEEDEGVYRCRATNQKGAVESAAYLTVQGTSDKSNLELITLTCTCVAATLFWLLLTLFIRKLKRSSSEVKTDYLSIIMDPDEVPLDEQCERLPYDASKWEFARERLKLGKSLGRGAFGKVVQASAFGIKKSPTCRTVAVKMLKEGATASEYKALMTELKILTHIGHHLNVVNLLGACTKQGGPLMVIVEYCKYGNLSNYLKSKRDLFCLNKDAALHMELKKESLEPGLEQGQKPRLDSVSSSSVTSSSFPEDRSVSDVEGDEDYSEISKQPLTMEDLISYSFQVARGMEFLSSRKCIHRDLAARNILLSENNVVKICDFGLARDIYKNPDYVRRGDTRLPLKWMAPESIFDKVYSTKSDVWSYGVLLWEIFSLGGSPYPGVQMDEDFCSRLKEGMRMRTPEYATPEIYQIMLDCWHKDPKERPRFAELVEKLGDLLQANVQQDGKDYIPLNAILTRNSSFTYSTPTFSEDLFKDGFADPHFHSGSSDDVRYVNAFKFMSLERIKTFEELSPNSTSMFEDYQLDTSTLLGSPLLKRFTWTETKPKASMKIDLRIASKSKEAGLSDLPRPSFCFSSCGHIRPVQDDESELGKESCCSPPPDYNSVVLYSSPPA

U-937 = experiment: cells; conditions: Homo sapiens
HL-60 = experiment: cells; conditions: Homo sapiens
BaF3 [11] = experiment: cells; conditions: Mus musculus
BaF3 [12] = experiment: cells; conditions: Mus musculus; remark: listed apart in the source

- CLint scaled [1]: 107 mL/min/kg
- inhibition [2]: Active
- half-life [5]: 49.8 min
- AUC(0-t) [6]: 671 ng·h/mL
- CL/F [7]: 198 mL/min/kg
- Vz [8]: 86.97 L/kg
- inhibition [10]: Active
- IC50 (U-937): > 3000 nM
- IC50 (HL-60): > 3000 nM
- IC50 (BaF3 [11]): 1.1 nM
- IC50 (BaF3 [12]): 472 nM
Structure (SMILES): Nc1cc(-c2ccc3c(/C=C/c4ccc(CN5CCOCC5)c(F)c4)n[nH]c3c2)ccn1
- Activity (MV4-11 [3]): Dose-dependent-effect
- Activity (MV4-11 [4]): Dose-dependent-effect
- Activity (MOLM-13): Dose-dependent-effect
- Activity [9]: Non-toxic
